Assay results: patent US3939143A, “1-N-isoserylkanamycins and the production thereof” (Zaidan Hojin Biseibutsu Kagaku Kenkyu Kai, priority 1973, dated 1976)

Legend:
Escherichia coli W677 = experiment: Minimum inhibitory concentration, serial dilution on nutrient agar; format: cell-based; conditions: W677, 37°C, 18 hours, read-out: Minimum Inhibitory Concentration
[1] = acute toxicity upon intravenous injection in mice; format: in vivo; conditions: mouse, in vivo; intravenous injection, mice
[2] = system: Staphylococcus aureus Terajima; experiment: Minimum inhibitory concentration, serial dilution on nutrient agar; format: cell-based; conditions: 37°C, 18 hours, read-out: Minimum Inhibitory Concentration
[3] = system: Escherichia coli LA290 R64; experiment: as above; format: cell-based; conditions: LA290R64, 18 h, read-out: Minimum Inhibitory Concentration
Proteus vulgaris OX 19 = experiment: as above; format: cell-based; conditions: OX19, 37°C, 18 hours, read-out: Minimum Inhibitory Concentration
[4] = system: Pseudomonas aeruginosa GN315; experiment: as above; format: cell-based; conditions: GN315, 37°C, 18 hours, read-out: Minimum Inhibitory Concentration
[5] = system: Klebsiella pneumoniae PCI 602; experiment: as above; format: cell-based; conditions: PCI602, 37°C, 18 hours, read-out: Minimum Inhibitory Concentration
[6] = system: Bacillus subtilis NRRL B-558; experiment: as above; format: cell-based; conditions: NRRLB558, 37°C, 18 hours, read-out: Minimum Inhibitory Concentration
[7] = system: Salmonella enteritidis 1891; experiment: as above; format: cell-based; conditions: Salmonella enterica, 37°C, 18 hours, read-out: Minimum Inhibitory Concentration
Escherichia coli K-12 = experiment: as above; format: cell-based; conditions: K12, 37°C, 18 hours, read-out: Minimum Inhibitory Concentration
Bacillus anthracis = experiment: microbe, parasite or virus in culture; format: cell-based; conditions: 18 h, read-out: Minimum Inhibitory Concentration
[8] = system: Pseudomonas aeruginosa TI-13; experiment: Minimum inhibitory concentration, serial dilution on nutrient agar; format: cell-based; conditions: TI13, 37°C, 18 hours
Experimental: (§1) The minimum inhibitory concentrations (mcg/ml) of 1-N-DL-isoserylkanamycin,1-N-DL-isoserylkanamycin B and 1-N-DL-isoseryl-3',4'-dideoxykanamycin B against various microorganisms were determined according to the serial dilution method using nutrient agar medium at 37°C, the estimation being effected after 18 hours incubation. For comparison purposes, the minimum inhibitory concentrations of kanamycin, kanamycin B and 3',4'-dideoxykanamycin B were also determined in the same manner and under the same conditions as mentioned above.
(§2) The antibacterial spectra of 1-N-DL-isoseryl-kanamycin (abbreviated as 1-IS-KM), 1-N-DL-isoseryl-kanamycin B (abbreviated as 1-IS-KMB) and 1-N-DL-isoseryl-3',4'-dideoxykanamycin B (abbreviated as 1-IS-DKB) are shown in the following table together with those of kanamycin (abbreviatedas KM), kanamycin B (abbreviated as KMB) and 3',4'-dideoxykanamycin B (abbreviated as DKB).

[9] = system: Pseudomonas aeruginosa A3; experiment: as above; format: cell-based; conditions: 37°C, 18 hours
Experimental: as §1, §2

[10] = system: Escherichia coli K-12 ML 1630; experiment: as above; format: cell-based; conditions: K12ML1630, 37°C, 18 hours
Experimental: as §1, §2

Shigella sonnei JS 11746 = experiment: as above; format: cell-based; conditions: JS11746, 37°C, 18 hours
Experimental: as §1, §2

[11] = system: Shigella flexneri 4b JS 11811; experiment: as above; format: cell-based; conditions: 4BJS11811, 37°C, 18 hours
Experimental: as §1, §2

[12] = system: Escherichia coli K-12 ML 1410; experiment: as above; format: cell-based; conditions: K12ML1410, 37°C, 18 hours, read-out: Minimum Inhibitory Concentration
[13] = system: Bacillus cereus ATCC 10702; experiment: as above; format: cell-based; conditions: ATCC10702, 37°C, 18 hours, read-out: Minimum Inhibitory Concentration
Sarcina lutea PCI 1001 = experiment: as above; format: cell-based; conditions: Micrococcus luteus, PCI1001; 37°C, 18 hours; read-out: Minimum Inhibitory Concentration
[14] = system: Staphylococcus aureus FDA 209P; experiment: as above; format: cell-based; conditions: FDA209P, 37°C, 18 hours, read-out: Minimum Inhibitory Concentration
[15] = system: Shigella dysenteriae JS 11910; experiment: as above; format: cell-based; conditions: JS11910, 18 h, read-out: Minimum Inhibitory Concentration
Escherichia coli NIHJ = experiment: as above; format: cell-based; conditions: 37°C, 18 hours, read-out: Minimum Inhibitory Concentration
[16] = system: drug-resistant strains of Escherichia coli and Pseudomonas aeruginosa; experiment: antibacterial activity against drug-resistant strains, in words; format: cell-based
[17] = system: Escherichia coli K-12 ML 1629; experiment: Minimum inhibitory concentration, serial dilution on nutrient agar; format: cell-based; conditions: K12ML1629, 37°C, 18 hours, read-out: Minimum Inhibitory Concentration
[18] = system: Bacillus subtilis PCI 219; experiment: as above; format: cell-based; conditions: PCI219, 37°C, 18 hours, read-out: Minimum Inhibitory Concentration
[19] = system: Mycobacterium smegmatis ATCC 607; experiment: as above; format: cell-based; conditions: Mycolicibacterium smegmatis, ATCC607; 37°C, 18 hours; read-out: Minimum Inhibitory Concentration
[20] = system: gram-negative and gram-positive bacteria; experiment: antibacterial activity, in words; format: cell-based; conditions: gram-negative and gram-positive bacteria sensitive to kanamycins
Experimental: as §1, §2

[21] = system: Staphylococcus aureus Smith; experiment: Minimum inhibitory concentration, serial dilution on nutrient agar; format: cell-based; conditions: 37°C, 18 hours, read-out: Minimum Inhibitory Concentration
[22] = system: Pseudomonas aeruginosa No.12; experiment: as above; format: cell-based; conditions: NO.12, 37°C, 18 hours, read-out: Minimum Inhibitory Concentration
[23] = system: Corynebacterium bovis 1810; experiment: as above; format: cell-based; conditions: Corynebacterium bovis, 1810; 37°C, 18 hours; read-out: Minimum Inhibitory Concentration
[24] = system: Pseudomonas aeruginosa 99; experiment: as above; format: cell-based; conditions: Pseudomonas aeruginosa, 99, 18 h, read-out: Minimum Inhibitory Concentration
Salmonella typhosa T-63 = experiment: as above; format: cell-based; conditions: Salmonella enterica, 18 h, read-out: Minimum Inhibitory Concentration
[25] = system: Escherichia coli LA290 R56; experiment: as above; format: cell-based; conditions: LA290R56, 18 h, read-out: Minimum Inhibitory Concentration
[26] = system: Klebsiella pneumoniae 22 No. 3038; experiment: as above; format: cell-based; conditions: 22NO.3038, 37°C, 18 hours, read-out: Minimum Inhibitory Concentration
[27] = system: Escherichia coli JR66/W677; experiment: as above; format: cell-based; conditions: JR66/W677, 18 h, read-out: Minimum Inhibitory Concentration
[28] = system: Escherichia coli LA290 R55; experiment: as above; format: cell-based; conditions: LA290R55, 18 h, read-out: Minimum Inhibitory Concentration

NCC(O)C(=O)N[C@@H]1C[C@H](N)[C@@H](O[C@H]2O[C@H](CN)CC[C@H]2N)[C@H](O)[C@H]1O[C@H]1O[C@H](CO)[C@@H](O)[C@H](N)[C@H]1O (mixture of isomers) [1-IS-DKB, 1-N-DL-isoseryl-3',4'-dideoxykanamycin B]
MIC (Escherichia coli W677): 0.78 µg/mL | LD50 [1]: > 100 mg/kg | MIC [2]: < 0.2 µg/mL | MIC [3]: 0.39 µg/mL | MIC (Proteus vulgaris OX 19): 0.2 µg/mL | MIC [4]: 12.5 µg/mL | MIC [5]: 0.39 µg/mL | MIC [6]: < 0.2 µg/mL | MIC [7]: 0.39 µg/mL | MIC (Escherichia coli K-12): 1.56 µg/mL | MIC (Bacillus anthracis): < 0.2 µg/mL | MIC [8]: 3.13 µg/mL | MIC [9]: 3.13 µg/mL | MIC [10]: 1.56 µg/mL | MIC (Shigella sonnei JS 11746): 3.13 µg/mL | MIC [11]: 3.13 µg/mL | MIC [12]: 1.56 µg/mL | MIC [13]: 1.56 µg/mL | MIC (Sarcina lutea PCI 1001): 1.56 µg/mL | MIC [14]: 0.78 µg/mL | MIC [15]: 3.13 µg/mL | MIC (Escherichia coli NIHJ): 1.56 µg/mL | antibacterial activity [16]: high antibacterial activity | MIC [17]: 1.56 µg/mL | MIC [18]: < 0.2 µg/mL | MIC [19]: < 0.2 µg/mL | antibacterial activity [20]: high antibacterial activity | MIC [21]: < 0.2 µg/mL | MIC [22]: 1.56 µg/mL | MIC [23]: 0.78 µg/mL | MIC [24]: 3.13 µg/mL | MIC (Salmonella typhosa T-63): 0.78 µg/mL | MIC [25]: 0.39 µg/mL | MIC [26]: 1.56 µg/mL | MIC [27]: 3.13 µg/mL | MIC [28]: 1.56 µg/mL
